Like-named read-outs stand apart in the source and are kept apart here.
How the values were obtained:
[1] = vasopressin angina of rats (acute coronary failure induced by vasopressin); format: in vivo; details: for ED50: Rattus norvegicus
Text: Thus, such derivatives forming a more preferred group of the compounds of the formula (I), wherein R^1 is as defined above, R^2 means a methyl group, R^3 is halogen and R^4, R^5 and R^6 stand for hydrogen, show significant antianginal effects. In these derivatives, the halogen may be fluorine, chlorine or bromine. […] Thus, the above compound of the invention is about 42 times as effective as fendiline under the same conditions.
(§1) In the case of the vasopressin angina of rats [Papp and Szekeres: Arch. int. Pharmacodyn. 160, 147 (1966)], the antianginal activity measured at the 2nd minute following the intravenous administration or at the 60th minute after oral administration, respectively, as well as the intravenous and oral acute toxicity values, the therapeutic indices and the quotient of the therapeutic ratio of KHL-8430 to that of fendiline as measured in rats are summarized in Table 1.

[2] = acute toxicity in rats (LD50, therapeutic indices); format: in vivo; details: for LD50 / selectivity ratio: rat, in vivo; for LD50: acute toxicity; for selectivity ratio: LD50 and ED50 in vasopressin angina
Text: as §1

[3] = antiarrhythmic ("antifibrillatory") action, fibrillation threshold; format: in vivo; details: table 2
[4] = "two-step" coronary occlusion of Harris, extrasystolic activity in conscious dogs; format: in vivo; details: for extrasystolic activity following by 24 hours the two-step coronary occlusion: conscious dogs, KHL-8430 2 mg/kg intravenous
[5] = vasopressin-induced angina, comparison of calcium antagonists (table 2); format: in vivo; details: for BP/Antianginal ED50 / ratio (row drawing 12; DP/dt max/antianginal by arithmetic): ratio, table 2
[6] = ventricular extrasystoles developing under the effect of a coronary occlusion; format: in vivo; details: as opposed to fendiline
[7] = anti-ischaemic protective action after an oral dose; format: in vivo
[8] = haemodynamic study on dogs during coronary occlusion; format: in vivo; details: in comparison with fendiline, verapamil or nifedipine
[9] = haemodynamic actions (blood pressure, heart rate, left ventricle contractility); format: in vivo; details: i.v.; KHL-8430, verapamil and fendiline
[10] = myocardial ischaemia induced by coronary occlusion in dogs; format: in vivo; details: versus fendiline
Text: The myocardial ischaemia induced by coronary occlusion in dogs [Szekeres e al.: J. Pharm.

[11] = system: auricular and ventricular muscle of the isolated cat heart; assay: antiarrhythmic action in auricular and ventricular muscle of the isolated cat heart
[12] = iv, 2 min, i.v. at 2 minutes before inducing the angina by i.v. 2 NE/kg of vasopressin, read-out: ED50, acute coronary failure induced by vasopressin
[13] = iv, rats, i.v., read-out: LD50, intravenous
[14] = iv, rats, i.v., read-out: therapeutic index, intravenous (head is drawing 4)
[15] = rats, oral, read-out: LD50, oral
[16] = rats, oral, read-out: therapeutic index, oral (head is drawing 5)
[17] = 1 h, vasopressin angina, 60th minute after oral administration, read-out: ED50, antianginal activity, oral
[18] = iv, 2 min, vasopressin angina, 2nd minute following i.v. administration, read-out: ED50, antianginal activity, intravenous

SMILES: CC(NCCC(c1ccccc1)c1ccccc1)c1ccc(Cl)cc1.Cl (centres unmarked) [2-(4-chlorophenyl)-6,6-diphenyl-3-azahexane hydrochloride]
- ED50 [1, 12]: 0.054 mg/kg
- times as effective as fendiline ([1]; vasopressin angina, i.v., same conditions): about 42 times

SMILES: CC(NCCC(c1ccccc1)c1ccccc1)c1ccccc1 (stereo not drawn) [Fendiline, N-(3,3-diphenylpropyl)-α-methylbenzylamine, reference compound]
- LD50 [2, 13]: 12.2 mg/kg
- selectivity ratio [2, 14]: 5.3
- LD50 [2, 15]: 800 mg/kg
- selectivity ratio [2, 16]: 40
- ratio (row drawing 11; BP/FFT by arithmetic) [3]: 0.26
- ratio (row drawing 13; DP/dt max/FFT by arithmetic) [3]: 0.175
- ED50 [1, 17]: 20 mg/kg
- ED50 [1, 12]: 2.3 mg/kg
- ED50 [1, 18]: 2.3 mg/kg
- extrasystolic activity following by 24 hours the two-step coronary occlusion [4]: no significant effect
- BP/Antianginal ED50 [5]: 0.62
- ratio (row drawing 12; DP/dt max/antianginal by arithmetic) [5]: 0.41

SMILES: COc1ccc(C(C)NCCC(c2ccccc2)c2ccccc2)cc1OC.Cl (centres unmarked) [KHL-8430, 2-(3,4-Dimethoxyphenyl)-6,6-diphenyl-3-azahexane hydrochloride]
- restraint of ventricular extrasystoles under coronary occlusion [6]: surprisingly capable to restrain the ventricular extrasystoles
- LD50 [2, 13]: 16 mg/kg
- selectivity ratio [2, 14]: 47.1
- LD50 [2, 15]: 1400 mg/kg
- selectivity ratio [2, 16]: 167
- Quotient of the therapeutic ratios, intravenous ([2]; rats, i.v., therapeutic ratio of KHL-8430 to that of fendiline): 8.89
- Quotient of the therapeutic ratios, oral ([2]; rats, oral, therapeutic ratio of KHL-8430 to that of fendiline): 4.17
- toxicity on intravenous and oral administrations ([2]; versus fendiline): less toxic than the reference compound
- ratio (row drawing 11; BP/FFT by arithmetic) [3]: 1.25
- ratio (row drawing 13; DP/dt max/FFT by arithmetic) [3]: 3.33
- anti-ischaemic protective action after an oral dose [7]: very smooth
- arterial blood pressure during coronary occlusion [8]: only a little lowered
- heart rate during coronary occlusion [8]: not decreased
- prolongation of the activation time in the ischaemic area [8]: significantly restrained
- ED50 [1, 17]: 8.4 mg/kg
- ED50 [1, 18]: 0.34 mg/kg
- strength and duration of the effect on the angina induced by vasopressin ([1]; versus fendiline): highly exceed that of fendiline
- haemodynamical therapeutic index [9]: by far the best among the three calcium antagonists studied
- decrease of myocardial ischaemia induced by coronary occlusion ([10]; intravenous or oral): decreased more strongly and with a much longer duration
- strength and duration of the effect on the ischaemic state induced by coronary occlusion [10]: highly exceed that of fendiline
- extrasystolic activity following by 24 hours the two-step coronary occlusion [4]: significantly lowered
- rhythm disturbances of the heart ([4]; dog, in vivo): in a great part of the cases, the rhythm disturbances of the heart could be suspended
- frequency of the extrasystoles, oral administration ([4]; oral administration): diminished in a dose-dependent manner and very significantly
- antiarrhythmic action, auricular and ventricular muscle of the isolated cat heart ([11]; compared with mexiletine): high antiarrhythmic action, which equals the effect of mexiletine
- antiarrhythmic action relative to fendiline, verapamil and other calcium antagonists ([11]; isolated cat heart): by far surpassing that of fendiline, verapamil and other calcium antagonists
- BP/Antianginal ED50 [5]: 3.75
- ratio (row drawing 12; DP/dt max/antianginal by arithmetic) [5]: 10.00

SMILES: COc1ccc(CCN(C)CCCC(C#N)(c2ccc(OC)c(OC)c2)C(C)C)cc1OC (centres unmarked) [verapamil]
- ratio (row drawing 11; BP/FFT by arithmetic) [3]: 0.13
- ratio (row drawing 13; DP/dt max/FFT by arithmetic) [3]: 0.04
- extrasystolic activity following by 24 hours the two-step coronary occlusion [4]: no significant effect
- ED50 ([5]; iv, read-out: ED50, Vasopressin-induced angina): 0.1 mg/kg
- BP/Antianginal ED50 [5]: 2.0
- ratio (row drawing 12; DP/dt max/antianginal by arithmetic) [5]: 0.7
